Test results as given in patent publication US6403591B1, “1-azatricyclic-4-benzylpiperazines” (Neurogen Corporation, priority 1999, dated 2002).

Tests used:
human α1 receptor = assay: α1 receptor binding, 3H-prazosine, CHO cell membranes; conditions: recombinant human α1 in CHO cells
Protocol: (§1) Pellets of Chinese hamster ovary (CHO) cells containing recombinantly produced primate D2, human D4 and human α1 receptors are used for the assays. The sample is homogenized in 100 volumes (w/vol) of 0.05 M Tris HCl buffer containing 120 mM NaCl, 5 mM MgCl2 and 1 mM EDTA at 4° C. and pH 7.4. The sample is then centrifuged at 30,000×g, resuspended and rehomogenized. The sample is then recentrifuged at 30,000×g, the supernatant is removed and the final tissue sample is frozen until it is needed. The tissue is resuspended 1:20 (wt/vol) in 0.05 M Tris HCl buffer containing 120 mM NaCl.
Norepinephrine al binding is carried out using ^3H-prazosine as the ligand. Nonspecific binding is determined in the presence of 1 μM prazosine. Preferably, dopamine antagonists should not interact with the α1 adrenergic receptor, as interactions with this G-coupled protein receptor give rise to types of hypotension.

human D4 receptor = target: T1, human D4 receptor (Homo sapiens, UniProt P21917); assay: D4 receptor binding, 3H-YM 09151-2, CHO cell membranes; conditions: recombinant human D4 in CHO cells, 0.1 nM 3H-YM 09151-2, 25° C.
T1 sequence (P21917 1-419): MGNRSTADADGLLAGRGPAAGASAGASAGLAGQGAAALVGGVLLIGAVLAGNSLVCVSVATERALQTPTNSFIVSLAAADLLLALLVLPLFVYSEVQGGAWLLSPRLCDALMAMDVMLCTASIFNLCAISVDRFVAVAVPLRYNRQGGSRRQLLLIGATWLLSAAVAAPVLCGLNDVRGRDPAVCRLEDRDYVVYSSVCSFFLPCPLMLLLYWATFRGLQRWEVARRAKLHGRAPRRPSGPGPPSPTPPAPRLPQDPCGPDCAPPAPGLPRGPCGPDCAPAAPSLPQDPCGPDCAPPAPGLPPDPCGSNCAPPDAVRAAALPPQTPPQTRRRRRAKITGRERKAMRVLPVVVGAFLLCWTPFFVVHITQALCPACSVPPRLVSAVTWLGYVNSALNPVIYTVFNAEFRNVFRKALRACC
Protocol: (§2) The following assay is a standard assay for determining the binding affinity of compounds to dopamine D4 and D2 receptors.
as §1
(§3) Incubations for dopaminergic binding are carried out at 25° C. and contain 0.4 ml of tissue sample, 0.1 nM ^3H-YM 09151-2 (Nemonapride, cis-5-Chloro-2-methoxy-4-(methylamino)-N-(2-methyl-2-(phenylmethyl)-3-pyrrolidinyl)benzamide) and the compound of interest in a total incubation of 1.0 ml. Nonspecific binding is defined as that binding found in the presence of 1 μM spiperone; without further additions, nonspecific binding is less than 20% of total binding.

primate D2 receptor = primate D2 receptor (UniProt P52702); assay: D2 receptor binding, 3H-YM 09151-2, CHO cell membranes; conditions: recombinant primate D2 in CHO cells, 0.1 nM 3H-YM 09151-2, 25° C.
Chain of primate D2 receptor (P52702 whole entry): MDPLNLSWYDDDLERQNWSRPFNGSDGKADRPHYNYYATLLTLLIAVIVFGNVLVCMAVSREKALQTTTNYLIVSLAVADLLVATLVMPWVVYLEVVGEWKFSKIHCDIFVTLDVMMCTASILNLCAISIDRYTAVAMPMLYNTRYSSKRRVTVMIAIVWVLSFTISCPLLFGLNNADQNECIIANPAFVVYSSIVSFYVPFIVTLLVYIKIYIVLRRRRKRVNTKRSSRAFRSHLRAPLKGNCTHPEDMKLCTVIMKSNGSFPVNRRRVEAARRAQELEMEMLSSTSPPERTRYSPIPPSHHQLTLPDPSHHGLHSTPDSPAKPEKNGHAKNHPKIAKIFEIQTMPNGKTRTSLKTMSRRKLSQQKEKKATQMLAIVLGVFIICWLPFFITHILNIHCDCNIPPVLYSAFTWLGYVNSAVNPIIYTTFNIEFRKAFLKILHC
Protocol: as §2, §1, §3

Ki (human D4 receptor) | Compound | Ki (human α1 receptor) | Ki (primate D2 receptor)
4 nM | Cc1ccc(CN2CCN(C3CCc4cccc5c4N(CC5)C3=O)CC2)cc1 (centres unmarked) [Compound 1, 5-[(4-methylbenzyl)piperazin-1-yl]-1,2,4,5,6,7-hexahydro-4-oxo-pyrrolo-[3,2,1-jk][1]benzazepine] | – | –
19 nM | CC1(C)Cc2cccc3c2N1C(=O)C(N1CCN(Cc2ccc(Cl)cc2)CC1)CC3 (centres unmarked) [Compound 2, 5-[(4-chlorobenzyl)piperazin-1-yl]-2,2-dimethyl-1,2,4,5,6,7-hexahydro-4-oxo-pyrrolo-[3,2,1-jk][1]benzazepine] | – | –

Compound | Ki (human D4 receptor) | Ki (human α1 receptor) | Ki (primate D2 receptor)
CC1Cc2cccc3c2N1C(=O)C(N1CCN(Cc2ccc(Cl)cc2)CC1)CC3 (mixture of isomers) [Compound 4] | 9 nM | > 1000 nM | 50 nM
